Assay: ANCHOR: plasma fatty acid concentrations, ratios and class proportions (GC/FID)
Type: in vivo, human
Conditions: for AA plasma Placebo-adjusted percent change from baseline / DHA plasma Placebo-adjusted percent change from baseline / DPAn-3 plasma Placebo-adjusted percent change from baseline / Linoleic plasma Placebo-adjusted percent change from baseline / Oleic plasma Placebo-adjusted percent change from baseline / Palmitic plasma Placebo-adjusted percent change from baseline / Ratio of AA/EPA plasma Placebo-adjusted percent change from baseline / Ratio of total ω-3/total ω-6 plasma Placebo-adjusted percent change from baseline / Stearic plasma Placebo-adjusted percent change from baseline: week 12, LS mean; for Monounsaturated, proportion of total fatty acids, plasma, Change from baseline / Saturated, proportion of total fatty acids, plasma, Change from baseline / Total ω-3, proportion of total fatty acids, plasma, Change from baseline / Total ω-6, proportion of total fatty acids, plasma, Change from baseline: LS mean (SE); for AA plasma Change from baseline / DHA plasma Change from baseline / DPAn-3 plasma Change from baseline / Linoleic plasma Change from baseline / Oleic plasma Change from baseline / Palmitic plasma Change from baseline / Ratio of AA/EPA plasma Change from baseline / Ratio of total ω-3/total ω-6 plasma Change from baseline / Stearic plasma Change from baseline: baseline to week 12, LS mean; for AA plasma End-of-treatment / DHA plasma End-of-treatment / DPAn-3 plasma End-of-treatment / Linoleic plasma End-of-treatment / Oleic plasma End-of-treatment / Palmitic plasma End-of-treatment / Ratio of AA/EPA plasma End-of-treatment / Ratio of total ω-3/total ω-6 plasma End-of-treatment / Stearic plasma End-of-treatment: week 12, mean; for Monounsaturated, proportion of total fatty acids, plasma, End-of-treatment / Saturated, proportion of total fatty acids, plasma, End-of-treatment / Total ω-3, proportion of total fatty acids, plasma, End-of-treatment / Total ω-6, proportion of total fatty acids, plasma, End-of-treatment: week 12, mean (SD)
Experimental: A multi-center, placebo-controlled, randomized, double-blind, 12-week study was performed to evaluate the efficacy and safety of >96% E-EPA in patients with fasting triglyceride levels≥200 mg/dl and <500 mg/dl despite statin therapy (the mean of two qualifying entry values needed to be ≥185 mg/dl and at least one of the values needed to be ≥200 mg/dl). The primary objective of the study was to determine the efficacy of >96% E-EPA 2 g daily and 4 g daily, compared to placebo, in lowering fasting TG levels in patients with high risk for cardiovascular disease and with fasting TG levels≥200 mg/dL and <500 mg/dL, despite treatment to LDL-C goal on statin therapy.
During the double-blind treatment period, patients were to take 2 capsules (>96% E-EPA or matching placebo) in the morning and 2 capsules in the evening for a total of 4 capsules per day. • Patients in the >96% E-EPA 2 g/day treatment group received 1>96% E-EPA 1 g capsule and 1 matching placebo capsule in the morning and in the evening. • Patients in the >96% E-EPA 4 g/day treatment group received 2>96% E-EPA 1 g capsules in the morning and evening. • Patients in the placebo group received 2 matching placebo capsules in the morning and evening.
Lipids were extracted from plasma and red blood cell (“RBC”) suspensions and converted into fatty acid methyl esters for analysis using a standard validated gas chromatography/flame ionization detection method. Fatty acid parameters were compared between EPA treatment groups and placebo using an ANCOVA model with treatment, gender, type of statin therapy, and presence of diabetes as factors, and the baseline parameter value as a covariate. LSMs, SEs, and 2-tailed 95% confidence intervals for each treatment group and for each comparison were determined.
The monounsaturated fatty acid group included myristoleic, palmitoleic, cis-vaccenic, oleic, gondoic/gadoleic, erucic and nervonic acids. The saturated fatty acid group included myristic, palmitic, stearic, arachidic, behenic and lignoceric acids. The “total ω-3” group included α-linolenic, stearidonic, eicosatrienoic, ω-3 arachidonic, eicosapentaenoic, ω-3 docosapentaenoic and docosahecaenoic acids. The “total ω-6” group included linoleic, γ-linolenic, eicosadienoic, dihomo-γ-linolenic, ω-6 arachidonic, adrenic, and ω-6 docosapentaenoic acids. The “total fatty acid” group represented the sum of the monounsaturated, saturated, total ω-3 and total ω-6 groups.

## CC/C=C\C/C=C\C/C=C\C/C=C\C/C=C\CCCC(=O)OCC [IPE, all-cis eicosa-5,8,11,14,17-pentaenoic acid ethyl ester]
2 g/day vs placebo
  Monounsaturated, proportion of total fatty acids, plasma, Placebo-adjusted percent change from baseline: −1.4%
  Saturated, proportion of total fatty acids, plasma, Placebo-adjusted percent change from baseline: −0.2%
  Total ω-3, proportion of total fatty acids, plasma, Placebo-adjusted percent change from baseline: 60.3%
  Total ω-6, proportion of total fatty acids, plasma, Placebo-adjusted percent change from baseline: −4.6%
  AA plasma Placebo-adjusted percent change from baseline: −19.1%
  DHA plasma Placebo-adjusted percent change from baseline: −0.7%
  DPAn-3 plasma Placebo-adjusted percent change from baseline: 88.9%
  Linoleic plasma Placebo-adjusted percent change from baseline: −14.5%
  Oleic plasma Placebo-adjusted percent change from baseline: −14.3%
  Palmitic plasma Placebo-adjusted percent change from baseline: −12.1%
  Ratio of AA/EPA plasma Placebo-adjusted percent change from baseline: −75.4%
  Ratio of total ω-3/total ω-6 plasma Placebo-adjusted percent change from baseline: 64.3%
  Stearic plasma Placebo-adjusted percent change from baseline: −12.6%
2 g/day
  Monounsaturated, proportion of total fatty acids, plasma, Change from baseline: −0.7 (0.4) mol %
  Saturated, proportion of total fatty acids, plasma, Change from baseline: −0.7 (0.3) mol %
  Total ω-3, proportion of total fatty acids, plasma, Change from baseline: 2.1 (0.2) mol %
  Total ω-6, proportion of total fatty acids, plasma, Change from baseline: −0.8 (0.5) mol %
  AA plasma Change from baseline: −31.1
  DHA plasma Change from baseline: 5.0
  DPAn-3 plasma Change from baseline: 22.4
  Linoleic plasma Change from baseline: −35.0
  Oleic plasma Change from baseline: −61.7
  Palmitic plasma Change from baseline: −50.1
  Ratio of AA/EPA plasma Change from baseline: −11.2
  Ratio of total ω-3/total ω-6 plasma Change from baseline: 0.1
  Stearic plasma Change from baseline: −19.6
  AA plasma End-of-treatment: 266.7
  DHA plasma End-of-treatment: 62.7
  DPAn-3 plasma End-of-treatment: 44.3
  Linoleic plasma End-of-treatment: 1082
  Oleic plasma End-of-treatment: 972.1
  Palmitic plasma End-of-treatment: 1004
  Ratio of AA/EPA plasma End-of-treatment: 3.4
  Ratio of total ω-3/total ω-6 plasma End-of-treatment: 0.2
  Stearic plasma End-of-treatment: 276.2
  Monounsaturated, proportion of total fatty acids, plasma, End-of-treatment: 28.0 (2.8) mol %
  Saturated, proportion of total fatty acids, plasma, End-of-treatment: 33.6 (2.2) mol %
  Total ω-3, proportion of total fatty acids, plasma, End-of-treatment: 5.1 (1.2) mol %
  Total ω-6, proportion of total fatty acids, plasma, End-of-treatment: 33.3 (3.4) mol %
4 g/day vs placebo
  Monounsaturated, proportion of total fatty acids, plasma, Placebo-adjusted percent change from baseline: −5.8%
  Saturated, proportion of total fatty acids, plasma, Placebo-adjusted percent change from baseline: 0.4%
  Total ω-3, proportion of total fatty acids, plasma, Placebo-adjusted percent change from baseline: 142.2%
  Total ω-6, proportion of total fatty acids, plasma, Placebo-adjusted percent change from baseline: −7.4%
  AA plasma Placebo-adjusted percent change from baseline: −30.7%
  DHA plasma Placebo-adjusted percent change from baseline: −2.9%
  DPAn-3 plasma Placebo-adjusted percent change from baseline: 143.6%
  Linoleic plasma Placebo-adjusted percent change from baseline: −24.8%
  Oleic plasma Placebo-adjusted percent change from baseline: −30.1%
  Palmitic plasma Placebo-adjusted percent change from baseline: −23.3%
  Ratio of AA/EPA plasma Placebo-adjusted percent change from baseline: −90.3%
  Ratio of total ω-3/total ω-6 plasma Placebo-adjusted percent change from baseline: 165.9%
  Stearic plasma Placebo-adjusted percent change from baseline: −16.5%
4 g/day
  Monounsaturated, proportion of total fatty acids, plasma, Change from baseline: −2.0 (0.4) mol %
  Saturated, proportion of total fatty acids, plasma, Change from baseline: −0.5 (0.3) mol %
  Total ω-3, proportion of total fatty acids, plasma, Change from baseline: 4.4 (0.2) mol %
  Total ω-6, proportion of total fatty acids, plasma, Change from baseline: −1.8 (0.5) mol %
  AA plasma Change from baseline: −60.1
  DHA plasma Change from baseline: 2.3
  DPAn-3 plasma Change from baseline: 31.8
  Linoleic plasma Change from baseline: −152
  Oleic plasma Change from baseline: −219
  Palmitic plasma Change from baseline: −161
  Ratio of AA/EPA plasma Change from baseline: −14.1
  Ratio of total ω-3/total ω-6 plasma Change from baseline: 0.2
  Stearic plasma Change from baseline: −31.2
  AA plasma End-of-treatment: 222.8
  DHA plasma End-of-treatment: 53.6
  DPAn-3 plasma End-of-treatment: 50.2
  Linoleic plasma End-of-treatment: 921.8
  Oleic plasma End-of-treatment: 782.5
  Palmitic plasma End-of-treatment: 843.8
  Ratio of AA/EPA plasma End-of-treatment: 1.6
  Ratio of total ω-3/total ω-6 plasma End-of-treatment: 0.2
  Stearic plasma End-of-treatment: 253.4
  Monounsaturated, proportion of total fatty acids, plasma, End-of-treatment: 26.7 (3.0) mol %
  Saturated, proportion of total fatty acids, plasma, End-of-treatment: 33.6 (2.4) mol %
  Total ω-3, proportion of total fatty acids, plasma, End-of-treatment: 7.1 (2.0) mol %
  Total ω-6, proportion of total fatty acids, plasma, End-of-treatment: 32.6 (3.5) mol %

Source: US11229618B2 (Amarin Pharmaceuticals Ireland Limited, priority 2012, dated 2022)
